# Experimental data taken from paper PMC4224572, “Peptidomimetic inhibitors of N-myristoyltransferase from human malaria and leishmaniasis parasites” (Organic & Biomolecular Chemistry, 2014).
# Columns and labels:
# [1] = tested on: LdNMT; test: Fluorogenic NMT inhibition assay, LdNMT; type: biochemical, L. donovani; details: recombinant enzyme; mean of duplicate or triplicate experiments
# Source text: (§1) 2-Methylimidazolyl analogues were synthesized building on the hypothesis that 2-methylimidazole (pK a ∼ 7.9)[18] is a reasonable mimetic for N-terminal Gly in the peptide substrate (pK a ∼ 8.0).[19] To cover a range of basicity, imidazolyl (pK a ∼ 7.0) and amine analogues (pK a ∼ 10.0) were also synthesized, each exploring a range of chain lengths (n) (Table 1). To probe versatility at the C-terminus, primary amides, carboxylic acids, 2-cyclohexylethyl and 2-(1-cyclohexenyl)ethyl amides were incorporated. Using a previously reported fluorogenic assay,[20] inhibitors were tested against the parasitic enzymes and HsNMT1 in order to explore their selectivity against a relevant host enzyme. […] Further reduction of the chain length (11 and 12, n = 8 and 7, respectively) led to loss of detectable activity against Plasmodium NMTs and significant loss of activity against LdNMT and HsNMT1.
# [2] = target: T1, PvNMT (Plasmodium vivax, UniProt A5K1A2); test: Fluorogenic NMT inhibition assay, PvNMT; type: biochemical; details: recombinant enzyme; mean of duplicate or triplicate experiments
# T1 sequence (A5K1A2 1-410): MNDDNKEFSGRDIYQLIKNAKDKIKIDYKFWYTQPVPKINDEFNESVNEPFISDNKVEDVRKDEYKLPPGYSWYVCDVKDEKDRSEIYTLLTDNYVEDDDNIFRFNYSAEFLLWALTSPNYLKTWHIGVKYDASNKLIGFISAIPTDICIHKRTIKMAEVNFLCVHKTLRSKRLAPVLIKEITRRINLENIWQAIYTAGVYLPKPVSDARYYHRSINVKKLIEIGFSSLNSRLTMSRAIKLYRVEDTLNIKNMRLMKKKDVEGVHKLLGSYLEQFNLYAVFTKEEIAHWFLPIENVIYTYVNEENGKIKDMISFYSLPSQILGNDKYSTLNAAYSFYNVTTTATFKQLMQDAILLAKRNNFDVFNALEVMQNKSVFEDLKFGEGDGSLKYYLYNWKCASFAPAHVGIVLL
# Source text: as §1
# [3] = target: T2, HsNMT1 (Homo sapiens, UniProt P30419); test: Fluorogenic NMT inhibition assay, HsNMT1; type: biochemical, H. sapiens; details: mean of duplicate or triplicate experiments
# T2 sequence (P30419 1-496): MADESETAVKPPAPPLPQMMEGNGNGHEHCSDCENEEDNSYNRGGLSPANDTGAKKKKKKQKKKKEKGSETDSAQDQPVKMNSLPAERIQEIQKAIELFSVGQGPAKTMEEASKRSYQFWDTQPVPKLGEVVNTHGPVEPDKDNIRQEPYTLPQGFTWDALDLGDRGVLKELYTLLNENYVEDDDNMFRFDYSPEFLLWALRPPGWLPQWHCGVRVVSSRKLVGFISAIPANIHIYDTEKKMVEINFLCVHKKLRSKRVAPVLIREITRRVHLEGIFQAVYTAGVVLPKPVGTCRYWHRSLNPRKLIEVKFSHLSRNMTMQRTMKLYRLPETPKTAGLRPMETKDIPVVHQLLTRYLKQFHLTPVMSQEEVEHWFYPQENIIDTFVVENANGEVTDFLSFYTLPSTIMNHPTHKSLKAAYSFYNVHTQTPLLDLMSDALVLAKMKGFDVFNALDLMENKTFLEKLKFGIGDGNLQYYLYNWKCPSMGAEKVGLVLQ
# Source text: 2-Methylimidazolyl analogues were synthesized building on the hypothesis that 2-methylimidazole (pK a ∼ 7.9)[18] is a reasonable mimetic for N-terminal Gly in the peptide substrate (pK a ∼ 8.0).[19] To cover a range of basicity, imidazolyl (pK a ∼ 7.0) and amine analogues (pK a ∼ 10.0) were also synthesized, each exploring a range of chain lengths (n) (Table 1). To probe versatility at the C-terminus, primary amides, carboxylic acids, 2-cyclohexylethyl and 2-(1-cyclohexenyl)ethyl amides were incorporated. Using a previously reported fluorogenic assay,[20] inhibitors were tested against the parasitic enzymes and HsNMT1 in order to explore their selectivity against a relevant host enzyme.
# [4] = target: T3, PfNMT (Plasmodium falciparum, UniProt Q9U419); test: Fluorogenic NMT inhibition assay, PfNMT; type: biochemical; details: recombinant enzyme; mean of duplicate or triplicate experiments
# T3 sequence (Q9U419 1-410): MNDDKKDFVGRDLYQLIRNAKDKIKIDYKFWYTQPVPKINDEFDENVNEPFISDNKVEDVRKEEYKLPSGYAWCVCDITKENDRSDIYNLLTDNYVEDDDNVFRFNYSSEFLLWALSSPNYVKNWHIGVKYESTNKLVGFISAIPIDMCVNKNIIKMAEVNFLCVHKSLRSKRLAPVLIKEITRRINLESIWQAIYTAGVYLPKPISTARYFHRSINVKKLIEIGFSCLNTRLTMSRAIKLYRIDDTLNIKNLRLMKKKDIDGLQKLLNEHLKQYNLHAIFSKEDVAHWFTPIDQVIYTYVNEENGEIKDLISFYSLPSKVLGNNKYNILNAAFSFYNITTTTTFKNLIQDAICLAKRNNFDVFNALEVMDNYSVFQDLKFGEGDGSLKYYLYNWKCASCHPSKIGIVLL
# Source text: as §1
SMILES,IC50 [1],IC50 [2],IC50 [3],IC50 [4]
NCCCC[C@H](NC(=O)[C@H](CO)NC(=O)CCCCCCCCCCn1ccnc1)C(=O)NCCC1CCCCC1 [Compound 1],25.8 ± 8.2 µM,> 100 µM,47.6 ± 3.8 µM,> 100 µM
NCCCC[C@H](NC(=O)[C@H](CO)NC(=O)CCCCCCCCCn1ccnc1)C(=O)NCCC1CCCCC1 [Compound 2],10.6 ± 1.6 µM,> 100 µM,44 ± 7.1 µM,> 100 µM
NCCCC[C@H](NC(=O)[C@H](CO)NC(=O)CCCCCCCCn1ccnc1)C(=O)NCCC1CCCCC1 [Compound 3],16.7 ± 2.5 µM,> 100 µM,> 100 µM,> 100 µM
NCCCC[C@H](NC(=O)[C@H](CO)NC(=O)CCCCCCCn1ccnc1)C(=O)NCCC1CCCCC1 [Compound 4],34.8 ± 3.7 µM,> 100 µM,> 100 µM,> 100 µM
Cc1nccn1CCCCCCCCCCC(=O)N[C@@H](CO)C(=O)N[C@@H](CCCCN)C(=O)NCCC1CCCCC1 [Compound 5],> 100 µM,> 100 µM,21.8 ± 0.8 µM,> 100 µM
CC(=O)N[C@@H](CO)C(=O)N[C@@H](CCCCN)C(=O)NCCC1CCCCC1 [Compound 14],> 100 µM,> 100 µM,> 100 µM,> 100 µM
NCCCCCCCCCCC(=O)N[C@@H](CO)C(=O)N[C@@H](CCCCN)C(=O)NCCC1=CCCCC1 [Compound 15],6.6 ± 1.28 µM,12.9 ± 1.07 µM,2.3 ± 0.14 µM,> 100 µM
NCCCCCCCCCC(=O)N[C@@H](CO)C(=O)N[C@@H](CCCCN)C(=O)NCCC1=CCCCC1 [Compound 16],0.44 ± 0.04 µM,3.55 ± 0.38 µM,0.67 ± 0.04 µM,> 100 µM

# The next lines start with the values.
IC50 [1],IC50 [2],IC50 [3],IC50 [4],SMILES
0.63 ± 0.01 µM,> 100 µM,7.92 ± 0.83 µM,> 100 µM,Cc1nccn1CCCCCCCCCC(=O)N[C@@H](CO)C(=O)N[C@@H](CCCCN)C(=O)NCCC1CCCCC1 [Compound 6]
3.42 ± 0.34 µM,> 100 µM,49.9 ± 10.6 µM,> 100 µM,Cc1nccn1CCCCCCCCC(=O)N[C@@H](CO)C(=O)N[C@@H](CCCCN)C(=O)NCCC1CCCCC1 [Compound 7]
1.46 ± 0.22 µM,> 100 µM,82.2 ± 14 µM,> 100 µM,Cc1nccn1CCCCCCCC(=O)N[C@@H](CO)C(=O)N[C@@H](CCCCN)C(=O)NCCC1CCCCC1 [Compound 8]
0.14 ± 0.01 µM,1.04 ± 0.01 µM,–,> 100 µM,NCCCCCCCCCCC(=O)N[C@@H](CO)C(=O)N[C@@H](CCCCN)C(=O)NCCC1CCCCC1 [Compound 9]
2.01 ± 0.3 µM,> 100 µM,7.68 ± 0.86 µM,> 100 µM,NCCCCCCCCC(=O)N[C@@H](CO)C(=O)N[C@@H](CCCCN)C(=O)NCCC1CCCCC1 [Compound 11]
1.39 ± 0.18 µM,> 100 µM,6.75 ± 0.45 µM,> 100 µM,NCCCCCCCC(=O)N[C@@H](CO)C(=O)N[C@@H](CCCCN)C(=O)NCCC1CCCCC1 [Compound 12]
